Test results published in US10399940B2, “Substituted pyrrolidines and methods of use” (AbbVie S.à.r.l., priority 2016, dated 2019).
Read-outs that look alike come from different tables or passages of the source.

Biological target: T1, F508delCFTR (Homo sapiens, UniProt P13569, DEL508-508)
T1 construct: expressed in transfected cells; host or cells: CFBE41o- (human lung derived epithelial cell line), doxycycline-inducible expression
Assay: Cell Surface Expression-Horse Radish Peroxidase (CSE-HRP) assay
Format: cell-based
Details: CFBE41o-F508delCFTR-HRP cells; for Maximum % activity (with co-corrector): with co-corrector (2 μM); for Maximum % activity (with co-corrector) / Maximum % activity (without co-corrector): normalized to on-plate positive control, highest concentration 20 μM
Procedure: Cell Surface Expression-Horse Radish Peroxidase (CSE-HRP) Assay
A cellular assay for measuring the F508delCFTR cell surface expression after correction with test compounds either without or with a co-corrector (2 μM of 3-[(2R,4R)-4-({[1-(2,2-difluoro-1,3-benzodioxol-5-yl)cyclopropyl]carbonyl}amino)-7-methoxy-3,4-dihydro-2H-chromen-2-yl]benzoic acid), was developed in human lung derived epithelial cell line (CFBE41o-) (Veit G et al, (2012) Mol Biol Cell. 23(21): 4188-4202). The development was achieved by expressing the F508delCFTR mutation along with a horseradish peroxidase (HRP) in the fourth exofacial loop, and then measuring the HRP activity using luminescence readout from these cells, CFBE41o-F508delCFTR-HRP, that were incubated overnight with the test corrector compounds, either without or with the co-corrector. For this primary assay, the CFBE41o-F508delCFTR-HRP cells were plated in 384-well plates (Greiner Bio-one; Cat 781080) at 4,000 cells/well along with 0.5 μg/mL doxycycline to induce the F508delCFTR-HRP expression and further incubated at 37° C., 5% CO2 for 72 hours. The test compounds were then added either without or with a co-corrector at the required concentrations and further incubated for 18-24 hours at 33° C. The highest concentration tested was 20 μM with an 8-point concentration response curve using a 3-fold dilution in both the test compound without or with the co-corrector. Three replicate plates were run to determine one EC50. All plates contained negative controls (dimethyl sulfoxide, DMSO) and positive control (2 μM of 3-[(2R,4R)-4-({[1-(2,2-difluoro-1,3-benzodioxol-5-yl)cyclopropyl]carbonyl}amino)-7-methoxy-3,4-dihydro-2H-chromen-2-yl]benzoic acid) as well as on-plate concentration response of the positive control. Post incubation, the plates were washed 5× times with Dulbecco's phosphate buffered saline (DPBS), followed by the addition of the HRP substrate, luminol (50 μL), and measuring the HRP activity using luminescence readout on EnVision® Multilabel Plate Reader (Perkin Elmer; product number 2104-0010). The raw counts from the experiment were analyzed using Accelrys® Assay Explorer v3.3.
Z′ greater than 0.5 was used as passing quality control criteria for the plates.
The Z′ is defined as: 1−[3*SDPositive Control+3*SDNegative Control/Absolute(MeanPositive Control−MeanNegative Control)] wherein “SD” is standard deviation.
The % activity measured at each of the 8 test concentrations of the test compound added either without or with a co-corrector (2 μM of 3-[(2R,4R)-4-({[1-(2,2-difluoro-1,3-benzodioxol-5-yl)cyclopropyl]carbonyl}amino)-7-methoxy-3,4-dihydro-2H-chromen-2-yl]benzoic acid) was normalized to the on-plate positive control using the following formulae: % activity(Test compound without co-corrector)=[(test compound without co-corrector response−DMSO response)/(positive control response−DMSO response)]*100 % activity(Test compound with co-corrector)=[(test compound with co-corrector response−DMSO response)/(positive control response−DMSO response)]*100
The maximum % activity achieved for the test compound either without or with a co-corrector at any tested concentration is presented in Table 1 along with the respective EC50's calculated using the following general sigmoidal curve with variable Hill slope equation (described as Model 42 in the Accelrys® Assay Explorer v3.3 software): y=(a−d)/(1+(x/c)^b)+d
General sigmoidal curve with concentration, response, top, bottom, EC50 and Hill slope. This model describes a sigmoidal curve with an adjustable baseline, a. The equation can be used to fit curves where response is either increasing or decreasing with respect to the independent variable, “x”. • “x” is a concentration of drug under test. • “y” is the response. • “a” is the maximum response, and “d” is the minimum response • “c” is the inflection point (EC50) for the curve. That is, “y” is halfway between the lower and upper asymptotes when x=c. “b” is the slope-factor or Hill coefficient. […]

[1] = test compound without co-corrector, 18-24 hours at 33° C., read-out: EC50 (without co-corrector)
[2] = with co-corrector (2 μM of 3-[(2R,4R)-4-({[1-(2,2-difluoro-1,3-benzodioxol-5-yl)cyclopropyl]carbonyl}amino)-7-methoxy-3,4-dihydro-2H-chromen-2-yl]benzoic acid), read-out: EC50 (with co-corrector)

T1 sequence (P13569 with tags, fused parts or gaps DEL508-508): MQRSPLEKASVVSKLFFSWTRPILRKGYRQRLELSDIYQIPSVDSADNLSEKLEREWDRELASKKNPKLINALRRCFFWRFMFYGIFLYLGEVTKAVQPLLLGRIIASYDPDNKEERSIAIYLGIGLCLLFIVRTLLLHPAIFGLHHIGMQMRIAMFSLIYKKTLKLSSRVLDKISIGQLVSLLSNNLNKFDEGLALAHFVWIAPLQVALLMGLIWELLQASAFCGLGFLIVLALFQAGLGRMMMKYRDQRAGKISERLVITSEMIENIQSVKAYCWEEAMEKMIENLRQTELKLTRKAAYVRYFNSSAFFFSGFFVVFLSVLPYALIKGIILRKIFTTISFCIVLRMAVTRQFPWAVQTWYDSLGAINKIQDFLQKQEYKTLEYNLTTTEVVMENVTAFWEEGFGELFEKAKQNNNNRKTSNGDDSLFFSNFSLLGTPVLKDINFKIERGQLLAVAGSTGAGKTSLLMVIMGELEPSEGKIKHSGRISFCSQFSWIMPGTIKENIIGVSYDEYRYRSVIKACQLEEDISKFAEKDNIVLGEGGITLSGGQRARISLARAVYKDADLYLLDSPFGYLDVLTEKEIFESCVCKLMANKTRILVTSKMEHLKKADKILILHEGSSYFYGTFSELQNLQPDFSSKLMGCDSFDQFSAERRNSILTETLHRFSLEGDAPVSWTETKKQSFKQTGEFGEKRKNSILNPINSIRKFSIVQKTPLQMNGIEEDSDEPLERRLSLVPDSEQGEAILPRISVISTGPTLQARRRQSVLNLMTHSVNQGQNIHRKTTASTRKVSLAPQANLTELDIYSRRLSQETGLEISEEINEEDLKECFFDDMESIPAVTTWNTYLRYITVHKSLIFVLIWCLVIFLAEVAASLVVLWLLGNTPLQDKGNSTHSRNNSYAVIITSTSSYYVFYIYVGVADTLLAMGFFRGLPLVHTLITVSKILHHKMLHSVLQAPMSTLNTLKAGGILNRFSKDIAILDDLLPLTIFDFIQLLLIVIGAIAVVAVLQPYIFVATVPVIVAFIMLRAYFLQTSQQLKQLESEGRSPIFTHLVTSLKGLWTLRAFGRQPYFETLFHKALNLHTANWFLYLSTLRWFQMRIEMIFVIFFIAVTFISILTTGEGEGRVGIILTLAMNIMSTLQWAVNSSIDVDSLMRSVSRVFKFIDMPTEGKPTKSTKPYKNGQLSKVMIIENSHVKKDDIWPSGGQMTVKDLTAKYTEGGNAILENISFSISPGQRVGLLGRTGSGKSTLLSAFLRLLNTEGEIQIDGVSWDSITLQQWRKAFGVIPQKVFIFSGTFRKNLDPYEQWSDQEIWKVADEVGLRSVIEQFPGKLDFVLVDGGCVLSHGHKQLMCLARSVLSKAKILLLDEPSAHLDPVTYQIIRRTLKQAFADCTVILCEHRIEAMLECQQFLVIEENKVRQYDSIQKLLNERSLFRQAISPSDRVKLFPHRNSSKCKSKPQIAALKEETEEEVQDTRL

| SMILES | EC50 [1] [µM] | EC50 [2] [µM] | Maximum % activity (with co-corrector) | Maximum % activity (without co-corrector) |
| --- | --- | --- | --- | --- |
| COc1ccc(C(F)(F)F)cc1CO[C@@H]1[C@@H](C(C)(C)C)[C@H](C(=O)O)N(C(=O)[C@@H]2CCC[C@@H](OC)C2)[C@@H]1c1ccccc1 (mixture of isomers) [Example 29, rac-(2R,3S,4R,5R)-3-(tert-butyl)-4-((2-methoxy-5-(trifluoromethyl)benzyl)oxy)-1-((1R,3R)-3-methoxycyclohexanecarbonyl)-5-phenylpyrrolidine-2-carboxylic acid] | 1 to 10 | 1 to 10 | +++ (≥350) | +++ (≥200) |
| CC(C)(C)[C@@H]1C(OCc2cc(Cl)ccc2Cl)[C@@H](c2ccccc2)N(C(=O)CC2CCCC2)[C@H]1C(=O)O (mixture of isomers) [Example 1, rac-(2R,3S,5R)-3-tert-butyl-1-(cyclopentylacetyl)-4-[(2,5-dichlorophenyl)methoxy]-5-phenylpyrrolidine-2-carboxylic acid] | 1 to 10 | 1 to 10 | +++ (≥350) | + (<100) |
| COc1ccc(C(F)(F)F)cc1COC1[C@@H](c2ccccc2)N(C(=O)C2CCCCC2)[C@@H](C(=O)O)[C@@H]1C(C)(C)C (mixture of isomers) [Example 2, rac-(2R,3S,5R)-3-tert-butyl-1-(cyclohexanecarbonyl)-4-{[2-methoxy-5-(trifluoromethyl)phenyl]methoxy}-5-phenylpyrrolidine-2-carboxylic acid] | 1 to 10 | 1 to 10 | +++ (≥350) | ++ (≥100 and <200) |
| COc1ccc(Cl)cc1COC1[C@@H](c2ccccc2)N(C(=O)C2CCCCC2)[C@@H](C(=O)O)[C@@H]1C(C)(C)C (mixture of isomers) [Example 3, rac-(2R,3S,5R)-3-tert-butyl-4-[(5-chloro-2-methoxyphenyl)methoxy]-1-(cyclohexanecarbonyl)-5-phenylpyrrolidine-2-carboxylic acid] | 1 to 10 | 1 to 10 | +++ (≥350) | ++ (≥100 and <200) |
| CC(C)(C)[C@@H]1C(OCc2cc(Cl)ccc2Cl)[C@@H](c2ccccc2)N(C(=O)C2CCCCC2)[C@H]1C(=O)O (mixture of isomers) [Example 4, rac-(2R,3S,5R)-3-tert-butyl-1-(cyclohexanecarbonyl)-4-[(2,5-dichlorophenyl)methoxy]-5-phenylpyrrolidine-2-carboxylic acid] | 1 to 10 | 1 to 10 | +++ (≥350) | ++ (≥100 and <200) |
| Cc1cc(C(F)(F)F)cc(OC2[C@@H](c3ccccc3)N(C(=O)C3CCCCC3)[C@@H](C(=O)O)[C@@H]2C(C)(C)C)n1 (mixture of isomers) [Example 5, rac-(2R,3S,5R)-3-tert-butyl-1-(cyclohexanecarbonyl)-4-{[6-methyl-4-(trifluoromethyl)pyridin-2-yl]oxy}-5-phenylpyrrolidine-2-carboxylic acid] | 1 to 10 | 1 to 10 | +++ (≥350) | ++ (≥100 and <200) |
| COc1cc(OC)nc(OC2[C@@H](c3ccccc3)N(C(=O)N(C(C)C)C(C)C)[C@@H](C(=O)O)[C@@H]2C(C)(C)C)n1 (mixture of isomers) [Example 6, rac-(2R,3S,5R)-3-tert-butyl-4-[(4,6-dimethoxypyrimidin-2-yl)oxy]-1-[di(propan-2-yl)carbamoyl]-5-phenylpyrrolidine-2-carboxylic acid] | 1 to 10 | 1 to 10 | +++ (≥350) | + (<100) |
| COc1ccc(C(F)(F)F)cc1COC1[C@@H](c2ccccc2)N(C(=O)N(C(C)C)C(C)C)[C@@H](C(=O)O)[C@@H]1C(C)(C)C (mixture of isomers) [Example 7, rac-(2R,3S,5R)-3-tert-butyl-1-[di(propan-2-yl)carbamoyl]-4-{[2-methoxy-5-(trifluoromethyl)phenyl]methoxy}-5-phenylpyrrolidine-2-carboxylic acid] | > 10 | > 10 | + (<150) | + (<100) |
| COc1ncnc(OC)c1CO[C@@H]1[C@@H](C(C)(C)C)[C@H](C(=O)O)N(C(=O)C2CCCCC2)[C@@H]1c1ccccc1 (racemic) [Example 10, rac-(2R,3S,4R,5R)-3-tert-butyl-1-(cyclohexanecarbonyl)-4-[(4,6-dimethoxypyrimidin-5-yl)methoxy]-5-phenylpyrrolidine-2-carboxylic acid] | 1 to 10 | 1 to 10 | +++ (≥350) | +++ (≥200) |
| COc1cc(OC)nc(CO[C@@H]2[C@@H](C(C)(C)C)[C@H](C(=O)O)N(C(=O)C3CCCCC3)[C@@H]2c2ccccc2)n1 (racemic) [Example 11, rac-(2R,3S,4R,5R)-3-tert-butyl-1-(cyclohexanecarbonyl)-4-[(4,6-dimethoxypyrimidin-2-yl)methoxy]-5-phenylpyrrolidine-2-carboxylic acid] | 1 to 10 | 1 to 10 | +++ (≥350) | ++ (≥100 and <200) |
| CN(C)c1ncc(C(F)(F)F)cc1CO[C@@H]1[C@@H](C(C)(C)C)[C@H](C(=O)O)N(C(=O)C2CCCCC2)[C@@H]1c1ccccc1 (racemic) [Example 12, rac-(2R,3S,4R,5R)-3-tert-butyl-1-(cyclohexanecarbonyl)-4-{[2-(dimethylamino)-5-(trifluoromethyl)pyridin-3-yl]methoxy}-5-phenylpyrrolidine-2-carboxylic acid] | 1 to 10 | 1 to 10 | +++ (≥350) | ++ (≥100 and <200) |
| COc1ccc(C(F)(F)F)cc1COC1[C@@H](c2ccccc2OC)N(C(=O)C2CCCCC2)[C@@H](C(=O)O)[C@@H]1C(C)(C)C (mixture of isomers) [Example 13, rac-(2R,3S,5R)-3-tert-butyl-1-(cyclohexanecarbonyl)-5-(2-methoxyphenyl)-4-{[2-methoxy-5-(trifluoromethyl)phenyl]methoxy}pyrrolidine-2-carboxylic acid] | 1 to 10 | 1 to 10 | +++ (≥350) | + (<100) |
| COc1cc(Cl)ccc1COC1[C@@H](c2ccccc2OC)N(C(=O)C2CCCCC2)[C@@H](C(=O)O)[C@@H]1C(C)(C)C (mixture of isomers) [Example 14, rac-(2R,3S,5R)-3-tert-butyl-4-[(4-chloro-2-methoxyphenyl)methoxy]-1-(cyclohexanecarbonyl)-5-(2-methoxyphenyl)pyrrolidine-2-carboxylic acid] | 1 to 10 | 1 to 10 | +++ (≥350) | ++ (≥100 and <200) |
